Results as given in ChEMBL document CHEMBL5543081, “Design, synthesis and evaluation of antioxidant and anti-inflammatory activities of novel resveratrol derivatives as potential multifunctional drugs” (Eur J Med Chem, 2024).
Calls of active or inactive are those of the source. The rule behind the calls is not given here.

Tests used:
RAW264.7 [1] = assay: Upregulation of Nrf2 expression in H2O2 induced mouse RAW264.7 cells at 10 uM by Western blot analysis; assay type: functional, cell-based
RAW264.7 [2] = assay: Effect on KEAP1 level in H2O2 induced mouse RAW264.7 cells at 2.5 to 10 uM by Western blot analysis; assay type: functional, cell-based; conditions: dose 2.5-10 µM
RAW264.7 [3] = assay: Protection against H2O2 induced apoptosis in mouse RAW264.7 cells assessed as cell apoptosis rate at 10 uM preincubated for 3 hrs with compound followed by H2O2 stimulation and measured after 3 hrs by annexin V-FITC and PI staining based flow cytometry analysis; assay type: functional; conditions: time 6.0 hrs
RAW264.7 [4] = assay: Protection against H2O2 induced apoptosis in mouse RAW264.7 cells assessed as decrease in cleaved caspase-3 expression at 10 uM by Western blot analysis; assay type: functional, cell-based
RAW264.7 [5] = assay: Protection against H2O2 induced apoptosis in mouse RAW264.7 cells assessed as decrease in cleaved PARP expression at 10 uM by Western blot analysis; assay type: functional, cell-based
RAW264.7 [6] = assay: Antiinflammatory activity in LPS-stimulated mouse RAW264.7 cells assessed as effect on ERK phosphorylation level preincubated for 4 hrs followed by LPS stimulation for 12 hrs by Western blot analysis; assay type: functional, cell-based; conditions: time 16.0 hrs
[7] = Antioxidant activity assessed as DPPH radical scavenging activity measured for 30 mins by spectrophotometric analysis; assay type: functional
[8] = Antioxidant activity assessed as ABTS radical scavenging activity after 20 mins; assay type: functional
[9] = Antioxidant activity assessed as FRAP radical scavenging activity by measuring reduction of Fe3+ complex to Fe2+ analogue incubated for 30 mins by FRAP assay; assay type: functional
RAW264.7 [10] = assay: Cytotoxicity against mouse RAW264.7 cells at 10 uM measured after 24 hrs by MTT assay relative to control; assay type: functional
RAW264.7 [11] = assay: Inhibition of H2O2 induced ROS production in mouse RAW264.7 cells assessed as decrease in ROS level at 10 uM preincubated for 3 hrs followed by H2O2 addition and measured after 3 hrs DCFH-DA staining based flow cytometry analysis; assay type: functional, cell-based; conditions: time 6.0 hrs
RAW264.7 [12] = assay: Inhibition of H2O2 induced ROS production in mouse RAW264.7 cells assessed as decrease in ROS level preincubated for 3 hrs followed by H2O2 addition and measured after 3 hrs DCFH-DA staining based flow cytometry analysis; assay type: functional, cell-based; conditions: dose 2.5-10 µM, time 6.0 hrs
RAW264.7 [13] = assay: Antiinflammatory activity against mouse RAW264.7 cells assessed as inhibition of LPS-induced NO production at 10 uM preincubated for 4 hrs with compound followed by LPS stimulation and measured after 12 hrs; assay type: functional, cell-based; conditions: time 16.0 hrs
RAW264.7 [14] = assay: Upregulation of Nrf2 expression in H2O2 induced mouse RAW264.7 cells by Western blot analysis; assay type: functional, cell-based; conditions: dose 2.5-10 µM
RAW264.7 [15] = assay: Upregulation of SOD mRNA expression in H2O2 induced mouse RAW264.7 cells at 2.5 to 10 uM by RT-qPCR analysis; assay type: functional, cell-based; conditions: dose 2.5-10 µM
RAW264.7 [16] = assay: Upregulation of CAT mRNA expression in H2O2 induced mouse RAW264.7 cells at 2.5 to 10 uM by RT-qPCR analysis; assay type: functional, cell-based; conditions: dose 2.5-10 µM
RAW264.7 [17] = assay: Upregulation of GPx mRNA expression in H2O2 induced mouse RAW264.7 cells at 2.5 to 10 uM by RT-qPCR analysis; assay type: functional, cell-based; conditions: dose 2.5-10 µM
RAW264.7 [18] = assay: Upregulation of HO-1 protein level in H2O2 induced mouse RAW264.7 cells at 2.5 to 10 uM by Western blot analysis; assay type: functional, cell-based; conditions: dose 2.5-10 µM
RAW264.7 [19] = assay: Upregulation of HO-1 mRNA expression in H2O2 induced mouse RAW264.7 cells at 2.5 to 10 uM by RT-qPCR analysis; assay type: functional, cell-based; conditions: dose 2.5-10 µM
RAW264.7 [20] = assay: Protection against H2O2 induced apoptosis in mouse RAW264.7 cells assessed as cell apoptosis rate at 10 uM preincubated for 3 hrs with compound followed by H2O2 stimulation and measured after 3 hrs by annexin V-FITC and PI staining based flow cytometry analysis (reference value: 15.63%); assay type: functional; conditions: time 6 hrs
RAW264.7 [21] = assay: Antiinflammatory activity in LPS-stimulated mouse RAW264.7 cells assessed as reduction in iNOS level preincubated for 4 hrs followed by LPS stimulation for 12 hrs by Western blot analysis; assay type: functional, cell-based; conditions: dose 2.5-10 µM, time 16.0 hrs
RAW264.7 [22] = assay: Antiinflammatory activity in LPS-stimulated mouse RAW264.7 cells assessed as reduction in iNOS mRNA expression preincubated for 4 hrs followed by LPS stimulation for 12 hrs by RT-qPCR analysis; assay type: functional, cell-based; conditions: dose 2.5-10 µM, time 16.0 hrs
RAW264.7 [23] = assay: Antiinflammatory activity in LPS-stimulated mouse RAW264.7 cells assessed as reduction in NF-kappaB p65 phosphorylation level at 10 uM preincubated for 4 hrs followed by LPS stimulation for 12 hrs by Western blot analysis; assay type: functional, cell-based; conditions: time 16.0 hrs
RAW264.7 [24] = assay: Antiinflammatory activity in LPS-stimulated mouse RAW264.7 cells assessed as inhibition of p38 phosphorylation level preincubated for 4 hrs followed by LPS stimulation for 12 hrs by Western blot analysis; assay type: functional, cell-based; conditions: dose 2.5-10 µM, time 16.0 hrs
RAW264.7 [25] = assay: Antiinflammatory activity in LPS-stimulated mouse RAW264.7 cells assessed as inhibition of JNK phosphorylation level preincubated for 4 hrs followed by LPS stimulation for 12 hrs by Western blot analysis; assay type: functional, cell-based; conditions: dose 2.5-10 µM, time 16.0 hrs

## Oc1ccc(/C=C/c2cc(O)cc(O)c2)cc1 [RESVERATROL]
RAW264.7 [1]
  Activity: inactive
RAW264.7 [2]
  Activity: inactive
RAW264.7 [3]
  Activity: inactive
RAW264.7 [4]
  Activity: inactive
RAW264.7 [5]
  Activity: inactive
RAW264.7 [6]
  Activity: inactive
[7]
  IC50: 86.6 µM
[8]
  IC50: 18.4 µM
[9]
  Activity: 0.9 µM

## Nc1ccc(C(=O)N/N=C\c2c(O)cc(O)cc2/C=C/c2ccc(O)cc2)cc1
RAW264.7 [10]
  Activity: >80%
[7]
  IC50: 46.2 µM
[8]
  IC50: 9.7 µM
[9]
  Activity: 2.2 µM

## O=C(N/N=C\c1c(O)cc(O)cc1/C=C/c1ccc(O)cc1)c1ccccc1F
[7]
  IC50: 97.8 µM
[8]
  IC50: 17.3 µM
[9]
  Activity: 1 µM

## N#Cc1ccc(C(=O)N/N=C\c2c(O)cc(O)cc2/C=C/c2ccc(O)cc2)cc1
[7]
  IC50: 84 µM
[8]
  IC50: 18.2 µM
[9]
  Activity: 0.6 µM

## O=C(N/N=C\c1c(O)cc(O)cc1/C=C/c1ccc(O)cc1)c1ccncc1
RAW264.7 [10]
  Activity: >80%
[7]
  IC50: 104 µM
[8]
  IC50: 13.5 µM
[9]
  Activity: 1.1 µM

## O=C(N/N=C\c1c(O)cc(O)cc1/C=C/c1ccc(O)cc1)c1ccc(O)cc1
RAW264.7 [10]
  Activity: >80%
RAW264.7 [11]
  inhibition: Active
RAW264.7 [12]
  inhibition: Dose-Dependent Effect
RAW264.7 [13]
  Activity: Active
RAW264.7 [14]
  Activity: Dose-Dependent Effect
RAW264.7 [2]
  Activity: inactive
RAW264.7 [15]
  Activity: inactive
RAW264.7 [16]
  Activity: inactive
RAW264.7 [17]
  Activity: inactive
RAW264.7 [18]
  Activity: Active
RAW264.7 [19]
  Activity: Active
RAW264.7 [20]
  Activity: 26.58%
RAW264.7 [4]
  Activity: Active
RAW264.7 [5]
  Activity: Active
RAW264.7 [21]
  Activity: Dose-Dependent Effect
RAW264.7 [22]
  Activity: Dose-Dependent Effect
RAW264.7 [23]
  Activity: Active
RAW264.7 [24]
  Activity: Dose-Dependent Effect
RAW264.7 [25]
  Activity: Dose-Dependent Effect
RAW264.7 [6]
  Activity: inactive
[7]
  IC50: 69.9 µM
[8]
  IC50: 13 µM
[9]
  Activity: 1.1 µM

## O=C(N/N=C\c1c(O)cc(O)cc1/C=C/c1ccc(O)cc1)c1cccc(O)c1
RAW264.7 [10]
  Activity: >80%
RAW264.7 [13]
  Activity: Active
[7]
  IC50: 76.6 µM
[8]
  IC50: 11.7 µM
[9]
  Activity: 1.3 µM

## O=C(N/N=C\c1c(O)cc(O)cc1/C=C/c1ccc(O)cc1)c1cccnc1
RAW264.7 [10]
  Activity: >80%
[7]
  IC50: 89.5 µM
[8]
  IC50: 12.7 µM
[9]
  Activity: 1.2 µM

## Cc1ccccc1C(=O)N/N=C\c1c(O)cc(O)cc1/C=C/c1ccc(O)cc1
[7]
  IC50: 97.3 µM
[8]
  IC50: 17.2 µM
[9]
  Activity: 0.4 µM

## O=C(N/N=C\c1c(O)cc(O)cc1/C=C/c1ccc(O)cc1)c1cccc([N+](=O)[O-])c1
[7]
  IC50: 79.9 µM
[8]
  IC50: 11.6 µM
[9]
  Activity: 0.4 µM

## Cc1c(C)c2c(c(C)c1O)CCC(C)(C(=O)O)O2 (stereo not given) [TROLOX]
[7]
  IC50: 32.7 µM
[8]
  IC50: 14.7 µM
[9]
  Activity: 2.5 µM

## Cc1cccc(C(=O)N/N=C\c2c(O)cc(O)cc2/C=C/c2ccc(O)cc2)c1
[7]
  IC50: 80.8 µM
[8]
  IC50: 18 µM
[9]
  Activity: 0.9 µM

## O=C(N/N=C\c1c(O)cc(O)cc1/C=C/c1ccc(O)cc1)c1ccc(F)cc1
[7]
  IC50: 86.3 µM
[8]
  IC50: 15.7 µM
[9]
  Activity: 0.8 µM

## O=C(N/N=C\c1c(O)cc(O)cc1/C=C/c1ccc(O)cc1)c1ccc(Br)cc1
[7]
  IC50: 84 µM
[8]
  IC50: 13 µM
[9]
  Activity: 0.5 µM

## O=C(N/N=C\c1c(O)cc(O)cc1/C=C/c1ccc(O)cc1)c1ccc(Cl)cc1
[7]
  IC50: 89.5 µM
[8]
  IC50: 17.9 µM
[9]
  Activity: 0.7 µM

## O=C(N/N=C\c1c(O)cc(O)cc1/C=C/c1ccc(O)cc1)c1ccccn1
RAW264.7 [10]
  Activity: >80%
RAW264.7 [11]
  inhibition: Active
RAW264.7 [13]
  Activity: Active
[7]
  IC50: 98.3 µM
[8]
  IC50: 17.1 µM
[9]
  Activity: 0.9 µM

## O=C(N/N=C\c1c(O)cc(O)cc1/C=C/c1ccc(O)cc1)c1cccc(F)c1
[7]
  IC50: 82.6 µM
[8]
  IC50: 12.5 µM
[9]
  Activity: 0.8 µM

## O=C(N/N=C\c1c(O)cc(O)cc1/C=C/c1ccc(O)cc1)c1ccccc1
[7]
  IC50: 84.4 µM
[8]
  IC50: 13.4 µM
[9]
  Activity: 0.7 µM

## O=C(N/N=C\c1c(O)cc(O)cc1/C=C/c1ccc(O)cc1)c1ccccc1O
[7]
  IC50: 37.8 µM
[8]
  IC50: 12.8 µM
[9]
  Activity: 0.9 µM

## Nc1ccccc1C(=O)N/N=C\c1c(O)cc(O)cc1/C=C/c1ccc(O)cc1
[7]
  IC50: 39.8 µM
[8]
  IC50: 8.5 µM
[9]
  Activity: 1.5 µM

## O=C(N/N=C\c1c(O)cc(O)cc1/C=C/c1ccc(O)cc1)c1cccc(Cl)c1
[7]
  IC50: 81.9 µM
[8]
  IC50: 15.2 µM
[9]
  Activity: 0.9 µM

## Cc1ccc(C(=O)N/N=C\c2c(O)cc(O)cc2/C=C/c2ccc(O)cc2)cc1
[7]
  IC50: 87 µM
[8]
  IC50: 15.7 µM
[9]
  Activity: 0.5 µM
